Assay: xn = mol fraction of the nth substance listed

CCOC(C)=O [ethyl acetate] + O=C=O
Settings	mass density [kg/m3]
333 K, 5360 kPa, Gas, x2 = 0.1231	987.7
333 K, 5360 kPa, Liquid, x2 = 0.5727	865.7
333 K, 5960 kPa, Gas, x2 = 0.1544	986
333 K, 5960 kPa, Liquid, x2 = 0.6283	836.3
333 K, 6470 kPa, Gas, x2 = 0.1698	986.1
333 K, 6470 kPa, Liquid, x2 = 0.6584	814.8
333 K, 7570 kPa, Gas, x2 = 0.2068	978.7
333 K, 7570 kPa, Liquid, x2 = 0.7586	785.3
333 K, 8460 kPa, Gas, x2 = 0.2731	973.6
333 K, 8460 kPa, Liquid, x2 = 0.8057	746.7
333 K, 8970 kPa, Gas, x2 = 0.3708	969.6
333 K, 8970 kPa, Liquid, x2 = 0.8421	720.4
353 K, 3960 kPa, Gas, x2 = 0.0666	980.2
353 K, 3960 kPa, Liquid, x2 = 0.5532	923.2
353 K, 5060 kPa, Gas, x2 = 0.0935	978.3
353 K, 5060 kPa, Liquid, x2 = 0.5767	920.9
353 K, 6270 kPa, Gas, x2 = 0.127	973.9
353 K, 6270 kPa, Liquid, x2 = 0.6075	919.6
353 K, 7470 kPa, Gas, x2 = 0.1822	967.8
353 K, 7470 kPa, Liquid, x2 = 0.627	901.7
353 K, 8470 kPa, Gas, x2 = 0.22	966.1
353 K, 8470 kPa, Liquid, x2 = 0.6668	854
353 K, 9470 kPa, Gas, x2 = 0.2634	956
353 K, 9470 kPa, Liquid, x2 = 0.7587	746.5
373 K, 5690 kPa, Gas, x2 = 0.0819	964.1
373 K, 5690 kPa, Liquid, x2 = 0.4697	758.8
373 K, 6460 kPa, Gas, x2 = 0.1202	961.2
373 K, 6460 kPa, Liquid, x2 = 0.5001	784.3
373 K, 7960 kPa, Gas, x2 = 0.1682	955.5
373 K, 7960 kPa, Liquid, x2 = 0.5505	790.5
373 K, 9470 kPa, Gas, x2 = 0.2401	944
373 K, 9470 kPa, Liquid, x2 = 0.6046	781.7
373 K, 10570 kPa, Gas, x2 = 0.352	923.9
373 K, 10570 kPa, Liquid, x2 = 0.6715	788.4
373 K, 11370 kPa, Gas, x2 = 0.4692	913.5
373 K, 11370 kPa, Liquid, x2 = 0.7259	780.3
393 K, 5060 kPa, Gas, x2 = 0.055	951.6
393 K, 5060 kPa, Liquid, x2 = 0.455	713.7
393 K, 5460 kPa, Gas, x2 = 0.0849	941.9
393 K, 5460 kPa, Liquid, x2 = 0.4831	744.8
393 K, 6970 kPa, Gas, x2 = 0.1218	932.1
393 K, 6970 kPa, Liquid, x2 = 0.5129	771.1
393 K, 8480 kPa, Gas, x2 = 0.1766	917.3
393 K, 8480 kPa, Liquid, x2 = 0.545	804.3
393 K, 9970 kPa, Gas, x2 = 0.255	895.6
393 K, 9970 kPa, Liquid, x2 = 0.5744	791.8
393 K, 11470 kPa, Gas, x2 = 0.4	856.8
393 K, 11470 kPa, Liquid, x2 = 0.6237	755.8
393 K, 11970 kPa, Gas, x2 = 0.6025	846.6
393 K, 11970 kPa, Liquid, x2 = 0.6629	719.7

CCOC(=O)CC [ethyl propanoate] + O=C=O
Liquid
Settings	mass density [kg/m3]
313 K, 2960 kPa, x2 = 0.5818	971
313 K, 3960 kPa, x2 = 0.6881	973.6
313 K, 4460 kPa, x2 = 0.7509	965.9
313 K, 4960 kPa, x2 = 0.799	960.9
313 K, 5460 kPa, x2 = 0.8301	950.9
313 K, 5970 kPa, x2 = 0.8675	923.3
313 K, 6270 kPa, x2 = 0.8871	902.4
333 K, 2960 kPa, x2 = 0.4093	900.2
333 K, 3460 kPa, x2 = 0.4733	905.3
333 K, 4460 kPa, x2 = 0.5479	902.9
333 K, 5460 kPa, x2 = 0.6214	895.5
333 K, 5960 kPa, x2 = 0.6608	886.6
333 K, 6660 kPa, x2 = 0.7224	868.7
333 K, 7260 kPa, x2 = 0.7819	842.2
353 K, 2960 kPa, x2 = 0.3557	864.4
353 K, 3860 kPa, x2 = 0.4093	864.9
353 K, 4960 kPa, x2 = 0.4746	869.1
353 K, 5960 kPa, x2 = 0.5459	855.1
353 K, 6960 kPa, x2 = 0.6173	854
353 K, 7970 kPa, x2 = 0.6847	850.5
353 K, 8870 kPa, x2 = 0.7529	824.3
373 K, 2960 kPa, x2 = 0.3282	817
373 K, 4460 kPa, x2 = 0.3961	812.4
373 K, 5960 kPa, x2 = 0.4965	802.1
373 K, 7470 kPa, x2 = 0.5422	788.2
373 K, 8970 kPa, x2 = 0.6332	766.7
373 K, 10570 kPa, x2 = 0.7127	735.7
373 K, 10970 kPa, x2 = 0.7391	720.9
